From patent US5118685A, “Aminopropanol derivatives of substituted 2-hydroxy-propiophenones, and therapeutic agents containing these compounds” (BASF Aktiengesellschaft, priority 1983, dated 1992)

Assays:
[1] = test system: aconitine-induced arrythmia in the dog; test: Antiarrhythmic action on aconitine-induced arrythmia in the dog (oral administration); type: in vivo, dog (male or female mongrel dogs); settings: for change in vivo at 10 mg/kg: Canis lupus familiaris, po, 1 h, read-out: Prolongation of aconitin infusion period; for prolongation of time before arrhythmias appeared, relative to that obtained with propafenone and diprafenone (times greater): dog, 10 mg/kg, oral
Procedure: Male or female mongrel dogs weighing 12-15 kg were used. The substances to be tested were administered orally, 40 minutes after induction of anesthesia using Na pentobarbital (30 mg/kg i.v.). Cardiac arrhythmias were induced by infusion of aconitine (5 μg per kg per min), the infusion beginning 60 minutes after administration of the substance. In the ECG of untreated animals, arrhythmias (loss or inversion of P, ventricular tachyarrhythmias) occurred after an average infusion time of 6.4±0.29 min.
When the substances according to the invention were administered in a dose of 10 mg/kg, the time which elapsed before arrhythmias appeared was prolonged. […]; the antiarrhythmic activity is higher (Table 1).

[2] = in vivo; settings: mouse, ip, single administration i.p., female NMRI mice, approximate values
[3] = test system: arrhythmias after infarct in the conscious dog; test: Antiarrhythmic action on arrhythmias after infarct (coronary ligature) in the conscious dog; type: in vivo, dog (male and female beagle dogs); settings: for inhibition of arrhythmias compared with propafenone and diprafenone (in words) / Increase in normal heart actions: oral
Procedure: The substances were also tested with regard to their action on arrhythmias after coronary ligature. This method permits conclusions to be drawn as to the action on arrhythmias after infarct in man. Male and female beagle dogs weighing 9-15 kg were used. The ramus descendens of the left coronary artery was ligatured by a modified method of Harris (Circulation, 1, 1318-1328, 1950). Tachycardic, usually ventricular arrhythmias of various origins resulted which were detectable on the ECG, with P loss QRS deformation and T wave elevation. The measure for determining antiarrhythmic action was the frequency (%) of normal heart actions ascertained during a 100-minute control period at 5-minute intervals. Hearbeats had to be at most 29% of the normal during this control period before a substance was administered. After administration, the ECG was run, as in the control period, for 100 minutes at 5-minute intervals, and then for a further 200 minutes at 10-minute intervals.

Compound	change in vivo at 10 mg/kg [1] [%]	LD50 [2] [mg/kg]	prolongation of time before arrhythmias appeared, relative to that obtained with propafenone and diprafenone (times greater) [1]	inhibition of arrhythmias compared with propafenone and diprafenone (in words) [3]	Increase in normal heart actions ([3]; dose 10.0 mg/kg) [%]	oral dosage rate giving inhibition of arrhythmias as great as propafenone (times less) ([3]; relative to propafenone)	Increase in normal heart actions ([3]; dose 21.5 mg/kg) [%]
CC(C)NCC(O)COc1ccccc1C(=O)CCc1cccn1C (centres unmarked) [Example 3]	85	68.1	–	–	–	–	–
CCCNCC(O)COc1ccccc1C(=O)CCc1cccn1C (centres unmarked) [Example 4]	70	46.4	twice	–	–	–	–
CC(C)N(CC(O)COc1ccccc1C(=O)CCc1cccn1C)C(C)C (centres unmarked) [Example 5]	85	68.1	–	more active than propafenone and diprafenone at the same rate	66	–	–
CC(C)NCC(O)COc1ccccc1C(=O)CCc1ccn(C)c1 (centres unmarked) [Example 7]	193	46.4	six times	more active than propafenone and diprafenone at the same rate	92	–	–
CCCNCC(O)COc1ccccc1C(=O)CCc1cnn(C)c1 (centres unmarked) [Example 9]	154	31.6	–	inhibited arrhythmias to just as great an extent as propafenone, and to a far greater extent than diprafenone	–	about 5 times less	–
CCC(C)(C)NCC(O)COc1ccccc1C(=O)CCc1cnn(C)c1 (centres unmarked) [Example 12]	137	68.1	–	–	–	–	–
CCC(C)(C)NCC(O)COc1ccccc1C(=O)CCc1ccccc1 (centres unmarked) [diprafenone, 2-[2-hydroxy-3-(1,1-dimethylpropylamino)-propoxy]-ω-phenylpropiophenone, reference compound]	33	68.1	–	–	–	–	43
